Measured values: BindingDB's records for doi:10.1021/jm020046y (National Institute of Diabetes, 2002)

How the values were obtained:
[1] = target: P2X purinoceptor 3 (Rattus norvegicus) (UniProt P49654); assay: The compound was evaluated for antagonist activity against recombinant rat P2X purinoceptor 3 (P2X3) at 3 uM, expressed in Xenopus oocytes
[2] = target: P2X purinoceptor 3 (Rattus norvegicus) (UniProt P49654); assay: The compound was evaluated for antagonist activity against recombinant rat P2X purinoceptor 3 (P2X3) at 10 uM,expressed in Xenopus oocytes
P2Y purinoceptor 1 = P2Y purinoceptor 1 (Meleagris gallopavo, UniProt P49652); assay: Evaluated for agonist activity against phospholipase C coupled P2Y purinoceptor 1 (P2Y1) of turkey erythrocytes
Sequence of P2Y purinoceptor 1 (P49652 whole entry): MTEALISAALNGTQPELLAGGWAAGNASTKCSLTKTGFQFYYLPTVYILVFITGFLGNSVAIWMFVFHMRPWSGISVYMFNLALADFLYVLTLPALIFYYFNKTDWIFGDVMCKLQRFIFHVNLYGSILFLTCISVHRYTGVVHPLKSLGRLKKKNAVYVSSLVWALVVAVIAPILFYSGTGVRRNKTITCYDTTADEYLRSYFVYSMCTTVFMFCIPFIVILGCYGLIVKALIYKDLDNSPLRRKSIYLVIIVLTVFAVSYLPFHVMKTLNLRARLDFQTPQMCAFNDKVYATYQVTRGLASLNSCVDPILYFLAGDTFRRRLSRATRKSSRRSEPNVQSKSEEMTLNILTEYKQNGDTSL

P2X purinoceptor 7 = target: T1, P2X purinoceptor 7 (Rattus norvegicus, UniProt Q64663); assay: The compound was evaluated for antagonist activity against recombinant rat P2X purinoceptor 7 (P2X7)
T1 sequence (Q64663 whole entry): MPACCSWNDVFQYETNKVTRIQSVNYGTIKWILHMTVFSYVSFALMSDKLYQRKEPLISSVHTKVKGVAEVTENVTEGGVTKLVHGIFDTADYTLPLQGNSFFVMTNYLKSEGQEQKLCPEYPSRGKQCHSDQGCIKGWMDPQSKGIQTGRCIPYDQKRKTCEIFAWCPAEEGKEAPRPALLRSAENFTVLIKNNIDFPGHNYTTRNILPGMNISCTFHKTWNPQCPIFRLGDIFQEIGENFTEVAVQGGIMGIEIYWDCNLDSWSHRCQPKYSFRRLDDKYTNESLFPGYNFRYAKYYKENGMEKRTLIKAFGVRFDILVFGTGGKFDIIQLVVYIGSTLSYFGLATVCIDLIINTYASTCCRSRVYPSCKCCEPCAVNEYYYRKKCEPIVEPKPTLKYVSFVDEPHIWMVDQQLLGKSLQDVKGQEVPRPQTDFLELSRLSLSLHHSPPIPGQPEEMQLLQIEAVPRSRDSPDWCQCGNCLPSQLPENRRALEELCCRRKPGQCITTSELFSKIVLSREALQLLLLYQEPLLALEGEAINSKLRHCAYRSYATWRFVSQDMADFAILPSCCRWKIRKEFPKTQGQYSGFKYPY

[3] = Dissociative constant against P2Y purinoceptor (P2Y) was reported; range 10-214
[4] = target: P2X purinoceptor 2 (Rattus norvegicus); assay: The compound was evaluated for antagonist activity against recombinant rat P2X purinoceptor 2 (P2X2) at 30 uM
[5] = The compound was evaluated for antagonist activity against recombinant rat P2X […] receptor 10 uM
[6] = Dissociation constant at P2X purinoceptor 1 from guinea pig taenia coli

Sequence of P2X purinoceptor 3 (Rattus norvegicus) (P49654 whole entry, looked up): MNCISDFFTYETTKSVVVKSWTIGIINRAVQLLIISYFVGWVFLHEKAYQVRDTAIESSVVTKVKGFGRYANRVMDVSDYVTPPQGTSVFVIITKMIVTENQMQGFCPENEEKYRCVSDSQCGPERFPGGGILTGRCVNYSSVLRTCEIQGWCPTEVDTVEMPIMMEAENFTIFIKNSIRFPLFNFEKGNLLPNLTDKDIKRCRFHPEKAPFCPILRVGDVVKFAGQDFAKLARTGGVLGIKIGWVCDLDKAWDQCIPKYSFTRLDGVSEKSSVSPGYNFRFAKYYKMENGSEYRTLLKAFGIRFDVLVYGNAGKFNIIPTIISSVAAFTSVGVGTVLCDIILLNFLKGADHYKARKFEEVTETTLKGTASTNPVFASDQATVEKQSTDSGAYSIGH

Nc1ncnc2c1ncn2[C@@H]1O[C@H](CO[P@@](=O)(O)O[P@@](=O)(O)CP(=O)(O)O)[C@@H](O)[C@H]1O
EC50 [1]: 9200 nM

CCCCCCSc1nc(N)c2ncn([C@@H]3O[C@H](COP(=O)(O)O)[C@@H](O)[C@H]3O)c2n1 [((2R,3S,4R,5R)-5-(6-amino-2-(hexylthio)-9H-purin-9-yl)-3,4-dihydroxytetrahydrofuran-2-yl)methyl dihydrogen phosphate]
EC50 [2]: 350 nM

CCOc1ccc(Nc2ccc([C+](c3ccc(N(CC)Cc4cccc(S(=O)(=O)[O-])c4)cc3C)c3ccc(N(CC)Cc4cccc(S(=O)(=O)O)c4)cc3C)cc2)cc1 [Brilliant Blue]
EC50 (P2Y purinoceptor 1): 0.1 nM
EC50 (P2X purinoceptor 7): 400 nM

O=S(=O)(O)c1cc(N=C=S)ccc1/C=C/c1ccc(N=C=S)cc1S(=O)(=O)O [DIDS]
Kd [3]: 10000 nM

O=c1[nH]cnc2c1ncn2[C@@H]1O[C@H](COP(=O)(O)OP(=O)(O)OP(=O)(O)OP(=O)(O)OP(=O)(O)OC[C@H]2O[C@@H](n3cnc4c(=O)[nH]cnc43)[C@H](O)[C@@H]2O)[C@@H](O)[C@H]1O [Ip5I]
IC50 [4]: > 30000 nM
IC50 [5]: 2800 nM

Nc1ccc(CCSc2nc(N)c3ncn([C@@H]4O[C@H](COP(=O)(O)OP(=O)(O)OP(=O)(O)O)[C@@H](O)[C@H]4O)c3n2)cc1 [PAPET-ATP]
EC50 [2]: 17 nM

C=CS(=O)(=O)c1cccc(Nc2cc(S(=O)(=O)O)c(N)c3c2C(=O)c2ccccc2C3=O)c1 [Uniblue A]
Kd [6]: 800 nM
